# Source: PubChem BioAssay (NCI)
#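 Exposure lasted 48 hours, with cells grown in 96-well plates and compounds tested at five concentrations. TGI: concentration producing complete growth inhibition.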
# What was measured:
# Assay in all cases: NCI tumour cell line growth inhibition, 48 h
# [1] = tested on: HCT-116 colon
# [2] = tested on: OVCAR-3 ovarian
# [3] = tested on: COLO 205 colon
# [4] = tested on: MDA-MB-231 breast
# [5] = tested on: RPMI-8226 leukemia
# [6] = tested on: NCI-H522 lung
# [7] = tested on: OVCAR-8 ovarian
# [8] = tested on: HL-60(TB) leukemia
# [9] = tested on: M14 melanoma
# [10] = tested on: SN12C renal
# [11] = tested on: HS 578T breast
# [12] = tested on: UACC-62 melanoma
# [13] = tested on: OVCAR-5 ovarian
# [14] = tested on: CCRF-CEM leukemia
# [15] = tested on: TK-10 renal
# [16] = tested on: A549 NSCLC
# [17] = tested on: A498 renal
# [18] = tested on: HCT-15 colon
# [19] = tested on: NCI/ADR-RES ovarian
# [20] = tested on: MDA-MB-435
# [21] = tested on: EKVX NSCLC
# [22] = tested on: HT29 colon
# [23] = tested on: U251 CNS
# [24] = tested on: LOX IMVI melanoma
# [25] = tested on: DU-145 prostate
# [26] = tested on: IGROV1 ovarian
# [27] = tested on: SK-MEL-2 melanoma
# [28] = tested on: SF-295 CNS
# [29] = tested on: MALME-3M melanoma
# [30] = tested on: MOLT-4 leukemia
# [31] = tested on: SK-MEL-28 melanoma
# [32] = tested on: NCI-H23 lung
# [33] = tested on: CAKI-1 renal
# [34] = tested on: BT-549 breast
# [35] = tested on: NCI-H460 lung
# [36] = tested on: SK-OV-3 ovarian
# [37] = tested on: UO-31 renal
# [38] = tested on: MDA-N
# [39] = tested on: HOP-92 NSCLC
# [40] = tested on: PC-3 prostate
# [41] = tested on: SF-268 CNS
# [42] = tested on: 786-0 renal
# [43] = tested on: SW-620 colon
# [44] = tested on: MCF7 breast
# [45] = tested on: RXF 393 renal
# [46] = tested on: SNB-19 CNS
# [47] = tested on: T-47D breast
# [48] = tested on: KM12 colon
# [49] = tested on: SNB-75 CNS
# [50] = tested on: NCI-H226 lung
# [51] = tested on: HOP-62 NSCLC
# [52] = tested on: SF-539 CNS
# [53] = tested on: OVCAR-4 ovarian
# [54] = tested on: UACC-257 melanoma
# [55] = tested on: K-562 leukemia
# [56] = tested on: ACHN renal
# [57] = tested on: HCC-2998 colon
# [58] = tested on: SK-MEL-5 melanoma
smiles,measurement,setting,value
C=C1C(=O)C2=C[C@H]1C[C@H](O)C(=O)[C@]1(C)CCCC(C)(C)[C@H]1C[C@H]2O,TGI,[1],3 µM
same,TGI,[2],4 µM
same,TGI,[3],1.85 µM
same,TGI,[4],2.64 µM
same,TGI,[5],1020 nM
same,TGI,[6],1.41 µM
same,TGI,[7],5.93 µM
same,TGI,[8],1.03 µM
same,TGI,[9],2.85 µM
same,TGI,[10],4.07 µM
same,TGI,[11],8.61 µM
same,TGI,[12],3.05 µM
same,TGI,[13],3.72 µM
same,TGI,[14],0.326 µM
same,TGI,[15],2.08 µM
same,TGI,[16],2.81 µM
same,TGI,[17],3.73 µM
same,TGI,[18],1.96 µM
same,TGI,[19],3.16 µM
same,TGI,[20],10.2 µM
same,TGI,[21],3.31 µM
same,TGI,[22],2.85 µM
same,TGI,[23],2.6 µM
same,TGI,[24],2.14 µM
same,TGI,[25],4.04 µM
same,TGI,[26],12.8 µM
same,TGI,[27],20.9 µM
same,TGI,[28],20.5 µM
same,TGI,[29],2.05 µM
same,TGI,[30],10.3 µM
same,TGI,[31],3.44 µM
same,TGI,[32],3.15 µM
same,TGI,[33],2.85 µM
same,TGI,[34],5.66 µM
same,TGI,[35],8.77 µM
same,TGI,[36],25.4 µM
same,TGI,[37],5.27 µM
same,TGI,[38],4.06 µM
same,TGI,[39],3.01 µM
same,TGI,[40],3.62 µM
same,TGI,[41],13.9 µM
same,TGI,[42],2.14 µM
same,TGI,[43],1.95 µM
same,TGI,[44],1.63 µM
same,TGI,[45],1.3 µM
same,TGI,[46],29.8 µM
same,TGI,[47],2.36 µM
same,TGI,[48],5.78 µM
same,TGI,[49],17.4 µM
same,TGI,[50],23 µM
same,TGI,[51],25.5 µM
same,TGI,[52],2.6 µM
same,TGI,[53],19.2 µM
same,TGI,[54],4.27 µM
same,TGI,[55],0.824 µM
same,TGI,[56],1.65 µM
CCOC(=O)C(C)(C)Oc1ccc(Cl)cc1,TGI,[1],> 1000 µM
same,TGI,[3],459 µM
same,TGI,[4],> 1000 µM
same,TGI,[6],> 1000 µM
same,TGI,[7],> 1000 µM
same,TGI,[8],> 1000 µM
same,TGI,[9],> 1000 µM
same,TGI,[10],> 1000 µM
same,TGI,[11],> 1000 µM
same,TGI,[12],> 1000 µM
same,TGI,[13],> 1000 µM
same,TGI,[14],> 1000 µM
same,TGI,[15],> 1000 µM
same,TGI,[16],> 1000 µM
same,TGI,[17],> 1000 µM
same,TGI,[18],> 1000 µM
same,TGI,[19],> 1000 µM
same,TGI,[20],> 1000 µM
same,TGI,[21],> 1000 µM
same,TGI,[22],325 µM
same,TGI,[23],> 1000 µM
same,TGI,[24],329 µM
same,TGI,[25],> 1000 µM
same,TGI,[26],> 1000 µM
same,TGI,[27],392 µM
same,TGI,[28],> 1000 µM
same,TGI,[29],> 1000 µM
same,TGI,[30],591 µM
same,TGI,[31],> 1000 µM
same,TGI,[32],> 1000 µM
same,TGI,[33],> 1000 µM
same,TGI,[34],> 1000 µM
same,TGI,[35],> 1000 µM
same,TGI,[36],> 1000 µM
same,TGI,[37],> 1000 µM
same,TGI,[38],> 1000 µM
same,TGI,[57],> 1000 µM
same,TGI,[39],650 µM
same,TGI,[40],> 1000 µM
same,TGI,[41],> 1000 µM
same,TGI,[42],> 1000 µM
same,TGI,[43],> 1000 µM
same,TGI,[44],> 1000 µM
same,TGI,[45],433 µM
same,TGI,[46],> 1000 µM
same,TGI,[47],682 µM
same,TGI,[48],> 1000 µM
same,TGI,[49],> 1000 µM
same,TGI,[50],429 µM
same,TGI,[51],> 1000 µM
same,TGI,[52],> 1000 µM
same,TGI,[53],> 1000 µM
same,TGI,[54],496 µM
same,TGI,[55],> 1000 µM
same,TGI,[56],> 1000 µM
same,TGI,[58],294 µM
Cc1ccc2c3c4c(ccc13)C(C)(C)OC4=C(C(C)C)C2=O,TGI,[1],> 100 µM
same,TGI,[2],26.8 µM
same,TGI,[3],> 100 µM
same,TGI,[4],> 100 µM
same,TGI,[5],> 100000 nM
same,TGI,[6],> 100 µM
same,TGI,[7],> 100 µM
same,TGI,[8],> 100 µM
same,TGI,[9],> 100 µM
same,TGI,[10],> 100 µM
same,TGI,[11],55.2 µM
same,TGI,[12],> 100 µM
same,TGI,[13],> 100 µM
same,TGI,[14],> 100 µM
same,TGI,[15],> 100 µM
same,TGI,[16],> 100 µM
same,TGI,[17],> 100 µM
same,TGI,[18],> 100 µM
same,TGI,[19],> 100 µM
same,TGI,[20],> 100 µM
same,TGI,[21],> 100 µM
same,TGI,[22],39.2 µM
same,TGI,[23],> 100 µM
same,TGI,[25],> 100 µM
same,TGI,[26],> 100 µM
same,TGI,[27],30.7 µM
same,TGI,[28],> 100 µM
same,TGI,[29],> 100 µM
same,TGI,[30],> 100 µM
same,TGI,[31],> 100 µM
same,TGI,[32],> 100 µM
same,TGI,[33],> 100 µM
same,TGI,[34],> 100 µM
same,TGI,[35],> 100 µM
same,TGI,[36],> 100 µM
same,TGI,[37],> 100 µM
same,TGI,[38],> 100 µM
same,TGI,[57],> 100 µM
same,TGI,[39],> 100 µM
same,TGI,[40],27.6 µM
same,TGI,[41],> 100 µM
same,TGI,[42],> 100 µM
same,TGI,[43],> 100 µM
same,TGI,[44],> 100 µM
same,TGI,[45],> 100 µM
same,TGI,[46],> 100 µM
same,TGI,[47],> 100 µM
same,TGI,[48],> 100 µM
same,TGI,[49],> 100 µM
same,TGI,[50],27.9 µM
same,TGI,[51],29 µM
same,TGI,[52],> 100 µM
same,TGI,[53],> 100 µM
same,TGI,[54],> 100 µM
same,TGI,[55],> 100 µM
same,TGI,[56],> 100 µM
same,TGI,[58],> 100 µM
